Source: patent US12528840B2, “Transcription active complex targeting cancer drug from viral protein sequence” (The Regents of the University of California, priority 2020, dated 2026)

What was measured:
Format in all cases: cell-based
CD19+ B cells = test: CD19+ B cell response to sCD40L, live/dead staining; conditions: 32 μM, sCD40L 1 μg/ml, 2 days
Method: CD19^+ B cells were isolated with magnetic beads from PBMC of a healthy donor (n=1). Cells were washed and cultured at 1×10^6/ml in a 96 well plate (200 μl/well in triplicates) without or with sCD40L (1 μg/ml) in the presence of MBK50 (16 or 32 μM) or mutant peptide (32 μM) for 2 days. Live cells were determined as shown in FIG. 3 left panel using live/dead-red staining (live cells are gated as red-staining negative population). […] The peptide drug targets actively replicating B-cells that is consistent with MBK50 targeting MYC.

[1] = test system: human peripheral blood mononuclear cells (PBMCs); test: Viability by flow cytometry after live/dead staining, PBMC versus cancer cell lines; conditions: healthy donor PBMCs vs e.g. THP-1 and BCBL-1
Method: FIG. 6. Viral and cellular responses to K-Rta peptide; identification of VGN50. (a) Protein sequence alignment. FIG. 6(A) The effect of VGN50 on various cancer cell types. MTT assays were performed with the indicated cell lines treated with various VGN50 concentrations. The O.D. of mock-treated samples were set as 100%, and O.D. from detergent treated cells were set as 0%. Percentage viability+/−SD was calculated for each treatment (N=3 samples/treatment). FIG. 6(B) Viability assay with flow cytometry. Cell viability was measured in triplicate with live/dead staining and the cell killing effects on cancer cells was compared with normal peripheral blood mononuclear cells (PBMC) from three healthy donors. Results are presented as percentage viability+/−SD deviation (N=3 samples/group).
As shown in FIG. 6(a), multiple cancer cell lines were used for MTT assay to evaluate cancer cell killing efficacies of the MBK50 peptide at different concentrations (cell variability studies). […] Importantly, human peripheral blood mononuclear cells (PBMCs) from healthy donors were approximately 10-fold less sensitive to MBK-mediated killing compared to myeloid and lymphoid cancer cell lines (e.g., THP-1 and BCBL-1) as assessed by flow cytometry after live/dead staining (FIG. 6(b)). […]

MYC [2] = test: SLAM-seq, MYC transcription; conditions: 24 μM, 30 min then 4sU 1 hour
Method: FIG. 9. Profiling Peptide targets with Thiol(SH)-linked alkylation for the metabolic sequencing of RNA (SLAM seq). Differences in active transcription in presence of peptide drug was examined. […] Total RNA-sequence performed 24 hours after drug incubation.
Thiol(SH)-linked alkylation for the metabolic sequencing of RNA (SLAM seq), an orthogonal-chemistry-based RNA sequencing technology detects 4-thiouridine (s4U) incorporation in RNA species at single-nucleotide resolution. Using SLAM-seq method, BC-1 cells were incubated with peptide drug and peptide with three amino acid substitute to alanine was used as a control peptide. Peptide drug was incubated in BC-1 cell culture (24 μM) and after 30 min drug incubation, 4sU (300 μM in final concentration) was added into culture media for 1 hour. Total RNA was isolated in the end of 1 hour 4sU incubation and alkylated RNA samples were subjected to SLAM-seq. Samples were duplicated and changed gene expression vs mock-treated cells (P<0.05) was marked in red. […] IGV viewer was used to visualize sequence reads at MYC region (Chr. 8). […] Log 2 fold changes and adjusted P-value of MYC down regulation in both BCBL-1 and BC-1 cells are depicted in underneath of panel.

CD14+ monocytes = test: CD14+ monocyte live/dead staining; conditions: 16 or 32 μM, 2 days; PBS, LPS, polyIC conditions; vs control peptide or PBS
Method: FIG. 13. Effect of MBK50 on CD14+ monocytes. FIG. 13(a) A scheme of the experimental procedure. CD14+ monocytes were prepared with magnetic beads from the PBMC of healthy donors. Cells were washed and cultured at 1×10^6/ml in a 96 well plate (200 μl/well in triplicates) without or with LPS (100 ng/ml) or poly I:C (10 μg/ml) in the presence of MBK (16 or 32 μM) or mutant peptide (32 μM) for 2 days. Live cells were determined using live/dead staining followed by flow cytometry analysis. FIG. 13(b) A representative flow profile with the gating strategy for live cells is shown. FIG. 13(c) Averages percentage of live cells for each culture condition are shown. **p<0.01, ***p<0.001, ****p<0.0001
Monocytic cells are important antigen-presenting cells bridging innate and antigen-specific immune responses. To evaluate the effect of MBK on monocytic cells, CD14+ monocytes were prepared with magnetic beads from the PBMC of healthy donors. Cells were washed and cultured at 1×10^6/ml in a 96 well plate (200 μl/well in triplicates) without or with LPS (100 ng/ml) or poly I:C (10 μg/ml) in the presence of MBK (16 or 32 μM) or mutant peptide (32 μM) for 2 days. Live cells were determined using live/dead staining, followed by flow cytometry analysis.

MYC [3] = test: Intracellular staining of MYC in LPS-activated THP-1 cells; conditions: THP-1, LPS 100 ng/ml, 16 μM, 24 hours
Description: FIG. 16. Effect of MBK50 on MYC and IRF4 expression in LPS-activated monocytic leukemia cell line THP-1 cells. […] MYC and IRF4 expression levels were examined by intracellular staining of MYC and IRF4 with isotype control staining followed by flow cytometry. FIG. 16(a) A scheme of the experimental procedure. FIG. 16(b) A representative histogram overlay for the MYC expression in THP-1 cells treated with MBK50, mutant control peptide or PBS, with isotype control. The average mean fluorescent intensity (MFI) for MYC expression (n=3) for each treatment is shown in the right panel. FIG. 16(c) A representative histogram overlay for the IRF4 expression (red) in THP-1 cells treated with MBK50, mutant control peptide, or PBS, with isotype control (blue). The average MFI for IRF4 expression for each treatment is shown in the right panel.
MYC is important for monocytic cell proliferation, especially upon LPS stimulation. […] MYC and IRF4 expression levels were examined by intracellular staining of MYC and IRF4 with isotype control staining followed by flow cytometry (FIG. 16a). […] Also, the percentage of THP-1 cells with reduced IRF4 expression was increased by MBK50 treatment compared to mutant control peptide or PBS treatment.

## LSSILQGLYQLDT [MBK50]
CD19+ B cells
  live cell %: reduced
  total cell numbers: increased
[1]
  lower sensitivity of PBMCs to killing compared to myeloid and lymphoid cancer cell lines: approximately 10 fold
MYC [2]
  MYC transcript species containing T→C mutation (Myc transcription): significantly decreased
MYC [2]; listed as peptide drug
  MYC transcript species containing T→C mutation (Myc transcription): strongly down-regulated
CD14+ monocytes
  percentage of live cells: significantly reduced
MYC [3]
  MYC expression (MFI): significantly reduced
